Some test systems named below: A549 NSCLC; MDA-MB-435; SK-MEL-2 melanoma; SW-620 colon; TK-10 renal; ACHN renal; NCI-H522 lung; OVCAR-3 ovarian; LOX IMVI melanoma; HT29 colon.
What all share (assay): inhibition of tumour cell growth, NCI panel, 48 h

The structures appear in SMILES notation.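 Test compounds were applied to cells in 96-well plates for 48 hours at 5 doses. GI50 is the concentration that inhibits growth by half. TGI: total growth inhibition.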 Bounds are passed on as bounds.

Consider `CC1NC(=O)C2=C1C(=O)NC(=O)C2` (stereo not given), for which the GI50 with A549 NSCLC, in the assay with MDA-MB-435, in the assay on SK-MEL-2 melanoma, in the assay with SW-620 colon, in the assay on TK-10 renal and with ACHN renal was over 100 µM in each case. In addition, the GI50 in the assay with NCI-H522 lung, in the assay on OVCAR-3 ovarian and in the assay with LOX IMVI melanoma was over 100 µM each time. In addition, the TGI with A549 NSCLC, in the assay on MDA-MB-435, in the assay on SK-MEL-2 melanoma, with SW-620 colon, with TK-10 renal and with ACHN renal was over 100 µM throughout. Moreover, the TGI in the assay with NCI-H522 lung, in the assay on OVCAR-3 ovarian and with LOX IMVI melanoma was over 100 µM throughout.
On to `Cc1cc(-c2cc(O)ccc2Cl)cc2nnc(Nc3ccc(OCCN4CCCC4)cc3)nc12`, for which the GI50 with A549 NSCLC was 1.36 µM; in the assay with MDA-MB-435, 0.175 µM; with SK-MEL-2 melanoma it was 1.7 µM; with SW-620 colon, 0.205 µM; with TK-10 renal it was 1.39 µM; with ACHN renal, 1.43 µM. For the same compound, the GI50 is 0.71 µM with NCI-H522 lung, 1.93 µM with HT29 colon, 1.59 µM in the assay with OVCAR-3 ovarian and 1.57 µM in the assay on LOX IMVI melanoma. Besides, the TGI in the assay with A549 NSCLC came to 3.48 µM; with MDA-MB-435, 0.321 µM; in the assay on SK-MEL-2 melanoma, 3.64 µM; in the assay on SW-620 colon it was 0.399 µM; in the assay on TK-10 renal, 3 µM; in the assay with ACHN renal, 2.83 µM. The TGI in the assay on NCI-H522 lung was found to be 2.58 µM; with HT29 colon, 3.91 µM; in the assay on OVCAR-3 ovarian, 3.12 µM; in the assay on LOX IMVI melanoma, 3.25 µM.
For the compound `Cn1c2c(c3c(Cl)nncc31)Cc1ccccc1-2`, the GI50 in the assay on A549 NSCLC is 20.6 µM; with MDA-MB-435, 29.7 µM; in the assay with SW-620 colon, 17.9 µM; with TK-10 renal, 26.2 µM; with ACHN renal, 11.6 µM; in the assay with NCI-H522 lung, 25.1 µM. The results for the GI50 in the assay with HT29 colon, in the assay with OVCAR-3 ovarian and in the assay on LOX IMVI melanoma were 16.9 µM, 31 µM and 20.9 µM, respectively. The TGI in the assay with A549 NSCLC was over 100 µM; in the assay on MDA-MB-435 it was over 100 µM; in the assay on SW-620 colon, over 100 µM; in the assay on TK-10 renal, over 100 µM; with ACHN renal it was 54.3 µM; with NCI-H522 lung it was 59.9 µM. In addition, the TGI is 44.5 µM with HT29 colon, over 100 µM with OVCAR-3 ovarian and over 100 µM in the assay with LOX IMVI melanoma.
For the compound `c1ccc(CNCCN(CCNCc2ccccn2)Cc2ccc3ccccc3c2)nc1`, the GI50 was 2.33 µM with A549 NSCLC; 1.99 µM with MDA-MB-435; 2.36 µM with SW-620 colon; 1.36 µM with TK-10 renal; 1.05 µM in the assay on ACHN renal; 3.04 µM with HT29 colon. The GI50 in the assay with OVCAR-3 ovarian was 1.83 µM; in the assay with LOX IMVI melanoma, 2 µM. The TGI was 5.38 µM with A549 NSCLC; 4.08 µM in the assay on MDA-MB-435; 6.32 µM with SW-620 colon; 6.58 µM with TK-10 renal; 2.43 µM in the assay with ACHN renal; 7.93 µM in the assay on HT29 colon. Besides, the TGI in the assay on OVCAR-3 ovarian was 3.74 µM; in the assay on LOX IMVI melanoma, 4.5 µM.
Regarding `Cn1c2c(c3ccccc31)CCN1C(=O)CCC21` (stereo not given), the TGI with MDA-MB-435, with SK-MEL-2 melanoma, with SW-620 colon, in the assay with TK-10 renal, in the assay on ACHN renal and in the assay on NCI-H522 lung was over 10 µM in each case. Also, the TGI in the assay on HT29 colon, with OVCAR-3 ovarian and in the assay on LOX IMVI melanoma was over 10 µM throughout.
For `Cc1cn(Cc2ccc(C34CC5CC(CC(C5)C3)C4)c(O)c2)c(=O)[nH]c1=O`, the GI50 in the assay with MDA-MB-435 is 2.62 µM; in the assay with SK-MEL-2 melanoma, 14.1 µM; in the assay with SW-620 colon, 8.59 µM; in the assay on TK-10 renal, 14.7 µM; in the assay on ACHN renal, 10.8 µM; in the assay on NCI-H522 lung, 8.04 µM. The figures for the GI50 with HT29 colon, in the assay on OVCAR-3 ovarian and with LOX IMVI melanoma were 11.1 µM, 4.04 µM and 11.3 µM, respectively. Besides, the TGI in the assay on MDA-MB-435 is 9.02 µM; in the assay with SK-MEL-2 melanoma it was 32.2 µM; in the assay with SW-620 colon, 20.9 µM; in the assay on TK-10 renal, 32.2 µM; with ACHN renal it was 24.3 µM; with NCI-H522 lung, 24.2 µM. Further, the TGI was 26.5 µM in the assay with HT29 colon, 16.3 µM in the assay with OVCAR-3 ovarian and 23.3 µM in the assay on LOX IMVI melanoma.
For the compound `N#Cc1cnc(Nc2cc(NC[C@H]3CNCCO3)c(C(F)(F)F)cn2)cn1`, the GI50 with A549 NSCLC is 20.6 µM; with MDA-MB-435, 3.56 µM; with SK-MEL-2 melanoma it was 12.6 µM; in the assay with SW-620 colon it was 18.1 µM; in the assay on TK-10 renal it was 3.66 µM; in the assay on NCI-H522 lung, 13.1 µM. Moreover, the GI50 is 25.7 µM in the assay with HT29 colon, 13.3 µM in the assay with OVCAR-3 ovarian and 7.15 µM in the assay on LOX IMVI melanoma. The TGI was over 100 µM in the assay with A549 NSCLC; 27.2 µM in the assay on MDA-MB-435; 34.7 µM in the assay on SK-MEL-2 melanoma; 73.8 µM with SW-620 colon; 36 µM in the assay on TK-10 renal; 34.9 µM in the assay with NCI-H522 lung. The TGI was 92 µM with HT29 colon, 48.3 µM in the assay on OVCAR-3 ovarian and 24.2 µM in the assay with LOX IMVI melanoma.
As to `O=C(NCC1CCCO1)c1ccc(NC2=C(Cl)C(=O)N(Cc3ccccc3)C2=O)cc1` (stereo not given), the GI50 in the assay with A549 NSCLC is 19.1 µM; in the assay with MDA-MB-435, 9.33 µM; in the assay with SK-MEL-2 melanoma, 17.5 µM; with SW-620 colon, 5.95 µM; in the assay on ACHN renal it was 18.7 µM; with NCI-H522 lung, 1.92 µM. Also, the GI50 is 22.2 µM with HT29 colon, 3.18 µM in the assay on OVCAR-3 ovarian and 24.5 µM with LOX IMVI melanoma. The TGI with A549 NSCLC amounted to 50.5 µM; in the assay on MDA-MB-435, 21.7 µM; in the assay on SK-MEL-2 melanoma, 34.7 µM; in the assay on SW-620 colon it was 42.8 µM; in the assay on ACHN renal, 38.8 µM; in the assay on NCI-H522 lung it was 10.8 µM. The values for the TGI in the assay with HT29 colon, with OVCAR-3 ovarian and in the assay with LOX IMVI melanoma were 88 µM, 10.7 µM and over 100 µM, respectively.

For the origin of these results see PubChem BioAssay (NCI).
